The text below walks through data of patent US6890900B2, “Methods for treating or preventing diseases of the oral cavity” (Campina B.V., priority 2001, dated 2005).

Assay in all cases: LF/GMP assay, viable plate count (pour plate) of broth culture
Assay type in all cases: cell-based
Holding throughout (details): for Log Difference: sialic acid 1,000 ppm vs 0 ppm, + = more growth

Test [1] deals with Actinobacillus haemophilus ATCC #43717. On the procedure: (§1) Bacterial strains used in this study were Pseudomonas aeruginosa ATCC #27853, Streptococcus mutans ATCC #33535, Streptococcus pyogenes ATCC #19615, and Actinobacillus haemophilus ATCC #43717 and an oral swab from a healthy adult. Bacteria were grown on blood/BHT media (Brain Heart Infusion Agar with protease peptone, sodium chloride, glucose, di-sodium phosphate, and agar, Oxoid, Hampshire England, Sheep's Blood) in the presence of 5% CO2 at 35° C. […] One ml of the appropriate bacterial dilution was taken using a sterile pipette and introduced into 8 ml of sterilized BHI broth. […] By pipette, 9 ml of broth was placed into medium test tubes as means of a control and 8 ml test tubes were prepared for the concentration tests). […] This solution was filtered through a 0.45 μm filter. […] To study the kinetics of LF/GMP binding, each strain of bacteria was taken separately with a sterile pipette and placed into an 8 ml BHI broth test tube, vortexed, and incubated in the presence of 1 ml of LF or GMP for 18-24 hours at 35° C. with 5% CO2. In the combination procedure, 0.5 ml of both LF and […] were taken as 1 ml inoculations. One mL of each bacterial strain, plus one mL of sialic acid solution (1,000 ppm) were inoculated into test tubes filled with 8 mL of BHI broth. Each test tube was vortexed, incubated for 24 hours at 35° C. with 5% CO2, and then pour plated in BHI agar to obtain a plate count. This technique was used to determine the density of living (viable) cells in inoculated broth cultures. It involves plating a bacterial sample and counting the resulting colonies after incubation. A serial dilution of the original broth was taken prior to plating. The serial dilution is necessary to reduce the density of organisms in order to create countable plates. Only plates containing between 25 and 250 colonies are considered countable. Cell densities are traditionally recorded as CFU (colony forming unit)/ml. […] Formula: [formula] The assays required the use of a pour plate technique. The pour plate technique adds a step to the conventional serial dilution. The 1 ml of dilution is added to a warm emulsion of dilute nutrient (BHI) agar to produce an agar overlay in the petri plates. After incubation, the bacterial growth covers the entire plate but individual cellular movement has been restricted by the soft agar overlay. Each colony formed is assumed to have originated from a single CFU. The plates were gently mixed, inverted, and incubated for 18-24 hour at 35° C. Using a control (one broth tube inoculated with a bacterial strain, but no LF), the effectiveness of LF was examined. Each test tube containing a specified amount of LF (50, 100, 250, 500, 1,000 ppm and 3000 ppm) was diluted and plates were poured. […] A. haemophilus, S. mutans, S. pyrogenes and an oral culture were tested at 35° C. Pseudomonas aeruginosa was tested at both room temperature and 35° C. with 5% CO2. This was done because P. aeruginosa is not strictly an oral pathogen. It is commonly found in the environment in various conditions. It can be found in the environment and oral intake can cause inflammation in the oral cavity. Most normal oral bacteria are only found in the mouth and are not taken in from outside factors. Therefore, P. aeruginosa is a threat in both temperature settings. […] (see Table 2).

Test [2] relates to Streptococcus mutans ATCC #33535. On the procedure:
as §1

For test [3], the system named is Pseudomonas aeruginosa ATCC #27853. On the procedure:
Bacterial strains used in this study were Pseudomonas aeruginosa ATCC #27853, Streptococcus mutans ATCC #33535, Streptococcus pyogenes ATCC #19615, and Actinobacillus haemophilus ATCC #43717 and an oral swab from a healthy adult. Bacteria were grown on blood/BHT media (Brain Heart Infusion Agar with protease peptone, sodium chloride, glucose, di-sodium phosphate, and agar, Oxoid, Hampshire England, Sheep's Blood) in the presence of 5% CO2 at 35° C. Bacteria were harvested by swabbing inoculated growth plates after 24 hours and diluting the colonies in 9 ml of deionized water (DI water) until a suspension of 0.5 McFarland Turbidity Standard was reached using the nephelometer (McFarland Turbidity Meter). The 0.5 McFarland value is approximately equivalent to 1.0×10^8 organisms. One ml of the appropriate bacterial dilution was taken using a sterile pipette and introduced into 8 ml of sterilized BHI broth. (Preparation of BHI broth: 37 g+1,000 ml DI water, Difco Laboratories. By pipette, 9 ml of broth was placed into medium test tubes as means of a control and 8 ml test tubes were prepared for the concentration tests).
This solution was filtered through a 0.45 μm filter. […] Example for calculating 2,500 ppm dilution (1,000 ppm=0.1%): [formula] [formula] [formula] […]
One mL of each bacterial strain, plus one mL of sialic acid solution (1,000 ppm) were inoculated into test tubes filled with 8 mL of BHI broth. Each test tube was vortexed, incubated for 24 hours at 35° C. with 5% CO2, and then pour plated in BHI agar to obtain a plate count.
This technique was used to determine the density of living (viable) cells in inoculated broth cultures. It involves plating a bacterial sample and counting the resulting colonies after incubation. A serial dilution of the original broth was taken prior to plating. The serial dilution is necessary to reduce the density of organisms in order to create countable plates. Only plates containing between 25 and 250 colonies are considered countable. Cell densities are traditionally recorded as CFU (colony forming unit)/ml. By convention, when 1.0 ml is inoculated onto a plate, the dilution factor (DF) is recorded as tenfold greater. Formula: [formula]
The assays required the use of a pour plate technique. The pour plate technique adds a step to the conventional serial dilution. The 1 ml of dilution is added to a warm emulsion of dilute nutrient (BHI) agar to produce an agar overlay in the petri plates. After incubation, the bacterial growth covers the entire plate but individual cellular movement has been restricted by the soft agar overlay. Each colony formed is assumed to have originated from a single CFU. The plates were gently mixed, inverted, and incubated for 18-24 hour at 35° C. […]

Setting [4] is: 24 hours at 35° C. with 5% CO2, listed as Sialic acid.
The mark [5] stands for this setting: sialic acid 1,000 ppm, 24 hours at 35° C. with 5% CO2.
Where [6] appears, read: sodium bicarbonate pH 4.36, column 1,000 ppm.

Regarding `CC(=O)N[C@H]1[C@H]([C@H](O)[C@H](O)CO)OC(O)(C(=O)O)C[C@@H]1O` (stereo partly drawn) [Sialic Acid, N-acetylneuraminic acid, reference compound], the “Log Difference” value in test [1] (24 hours at 35° C. with 5% CO2) is 0 log; in test [1] (setting [4]), “did not reduce the bacterial growth”; in test [2] (24 hours at 35° C. with 5% CO2), 0 log; in test [2] (setting [4]), “did not reduce the bacterial growth”; in test [3] (24 hours at 35° C. with 5% CO2) it was “^+1 log”; in test [3] (setting [4]) it was “increased the amount of bacterial growth by one log”. In addition, the plate count was 2.9 × 10^8 in test [1] (setting [5]), 5.4 × 10^7 in test [2] (setting [5]) and 1.0 × 10^9 in test [3] (setting [5]).
As for `O=C([O-])O.[Na+]` [Sodium Bicarbonate, Sodium bicarbonate], the pour plate count was 1.9 × 10^8 in test [1] (setting [6]), 8.4 × 10^7 in test [2] (setting [6]) and 6.0 × 10^6 in test [3] (setting [6]).
